# According to patent US5627263A, “Integrin-binding peptides” (La Jolla Cancer Research Foundation, priority 1995, dated 1997):
# Where a SMILES comes first, the peptide text is derived from it. Bridges are numbered along the chain shown (N, C = ends).
# Experiments:
# [1] = biological target: α5 β1 integrin (Homo sapiens, UniProt P05556+P08648); experiment: 125I-fibronectin binding assay, competing peptides; details: microtiter wells coated with α5 β1, 1 hr; FIG. 1; read-out: IC50, inhibition of 125I-fibronectin binding to α5 β1
# Experimental: The α5 β1 integrin was bound to α5 specific antibody-coated wells by incubating 300 μl of a placental extract per well in TBS buffer containing 0.1M octylglucoside, 1 mM CaCl2, 1 mM MnCl2 and proteinase inhibitors overnight at 4° C., as described by Pytela et al. (1987), supra. Alternatively, the α5β1 integrin was directly coated on plastic as described above. The wells were extensively washed with TBS containing 0.1% NP-40. ^125 I-labeled fibronectin (100,000 cpm per well) was incubated in the presence of competing peptides for 1 hr at 25° C. in 100 μl volume of TBS containing 0.1% NP-40 and 1 mM MnCl2, as described by Koivunen et al. (1993), supra. After repeated washing, the bound radioactivity was quantitated with a gamma counter.
# Initially, CRRETAWAC [SEQ ID NO:6] was examined for its ability to inhibit binding of fibronectin, which is the natural ligand for α5 β1. Briefly, ^125 I-fibronectin was incubated for 1 hr in the presence of competing peptides in microtiter wells coated with α5 β1. Following incubation, the wells were washed and bound radioactivity was determined with a gamma counter.
# [2] = biological target: T1, α5 β1 integrin (UniProt G3HZ55+P08648); experiment: Attachment of B2/α27 cells to immobilized GACRRETAWACGA peptide and its inhibition; assay type: cell-based, human; details: EDTA 10 mM; FIG. 8
# T1 construct: expressed in transfected cells; host or cells: CHO B2/α27
# Source text: Cell lines expressing fibronectin-binding integrins were used to determine peptide activities against these integrins in the cell attachment assay described by Ruoslahti et al., Meth. Enzymol. 144:803-831 (1982), which is incorporated herein by reference. Human plasma fibronectin was iodinated as described by Morla and Ruoslahti, J. Cell Biol. 118:421-429 (1992), which is incorporated herein by reference. Vitronectin was obtained from Telios Pharmaceuticals (San Diego, Calif.). […] Peptide was coated on plastic by incubating at 37° C. for 2 hr in phosphate buffered saline containing 0.25% glutaraldehyde to crosslink the peptide. Free binding sites on the plastic were blocked using BSA. Approximately 1×10^5 cells per well were allowed to attach for 1 hr in the presence or absence of competing peptides. Bound cells were quantitated by staining with 0.1% amido black.
# In addition to the inhibition of cell attachment to natural ligands, attachment and inhibition assays were performed using the […] [SEQ ID NO:3] peptide as substrate. The microtiter well were coated with […] [SEQ ID NO:3] using glutaraldehyde as described above. […] Bound cells were quantitated by staining with 0.1% amido black.
Structure (SMILES),IC50 [1],Inhibition of cell attachment to immobilized RRETAWA peptide by EDTA [2]
"CC(C)C[C@H](NC(=O)[C@@H]1CSSC[C@H](NC(=O)[C@H](C)NC(=O)CN)C(=O)N[C@@H](CCCNC(=N)N)C(=O)NCC(=O)N[C@@H](CC(=O)O)C(=O)N1)C(=O)NCC(=O)N[C@@H](C)C(=O)O [CRGDC, GA*CRGDC*LGA] (H-GACRGDCLGA-OH; disulfide 3-7)",~8 nM,–
O=C(O)CN(CCN(CC(=O)O)CC(=O)O)CC(=O)O [EDTA],–,inhibited
"C[C@H](NC(=O)CNC(=O)[C@@H]1CSSC[C@H](NC(=O)[C@H](C)NC(=O)CN)C(=O)N[C@@H](CCCNC(=N)N)C(=O)N[C@@H](CCCNC(=N)N)C(=O)N[C@@H](CCC(=O)O)C(=O)N[C@@H]([C@@H](C)O)C(=O)N[C@@H](C)C(=O)N[C@@H](Cc2c[nH]c3ccccc23)C(=O)N[C@@H](C)C(=O)N1)C(=O)O [CRRETAWAC, GA*CRRETAWAC*GA] (H-GACRRETAWACGA-OH; disulfide 3-11)",~8 nM,–
